# Measured values reported in patent US9718781B2, “Methods and compounds for treating proliferative disorders and viral infections” (University College Dublin, National University of Ireland, …, priority 2012, dated 2017).
# Several values for one entry are separate records, joined by “and”; a condition that tells them apart may be missing. Identical values can stand only once. Like-named read-outs stand apart in the source and are kept apart here.
# Columns and labels:
# [1] = biological target: T1, TPβ (Homo sapiens, UniProt P21731); test: U46619-induced [Ca2+]i mobilization in HEK.TPβ cells; type: cell-based; settings: for remaining activity at 1 µM / remaining activity at 10 µM: % of agonist-induced response in vehicle-treated cells; for remaining activity at 1 µM: read-out: Percentage of Control, TPβ, 1 μM; for remaining activity at 10 µM: antagonist 10 μM, read-out: Percentage of Control, TPβ, 10 μM
# T1 construct: expressed in transfected cells
# T1 sequence (P21731 1-407 isoform P21731-2): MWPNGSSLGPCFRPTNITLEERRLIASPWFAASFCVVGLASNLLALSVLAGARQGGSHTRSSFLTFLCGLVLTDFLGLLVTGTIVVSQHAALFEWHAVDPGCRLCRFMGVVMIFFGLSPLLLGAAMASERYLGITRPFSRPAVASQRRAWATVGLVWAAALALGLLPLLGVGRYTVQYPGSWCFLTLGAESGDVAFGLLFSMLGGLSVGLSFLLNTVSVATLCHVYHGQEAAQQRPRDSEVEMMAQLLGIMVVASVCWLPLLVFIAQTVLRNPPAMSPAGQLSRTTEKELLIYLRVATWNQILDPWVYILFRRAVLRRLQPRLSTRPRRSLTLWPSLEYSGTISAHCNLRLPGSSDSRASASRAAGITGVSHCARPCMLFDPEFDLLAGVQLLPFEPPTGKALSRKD
# How it was run: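 Fluo-4-loaded (3 μM, 1 h, 25° C.) HEK293 TPβ cells in KREBs-HEPES pH 7.4, pre-incubated 10 min with test compound, then stimulated with 1 μM U46619. Fluorescence at 520 nm followed for 75 s, calibrated by Fmax (2% Triton X100) and Fmin (1 mM EGTA).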
# [2] = test system: human platelets; test: ADP-induced platelet aggregation of human platelets ex vivo; type: cell-based
# Description: The method of assessing platelet aggregation also allows evaluation of the effect of the compounds of the invention on platelet aggregation upon stimulation by other agonists, e.g., adenosine diphosphate (ADP) and thrombin.
# [3] = test system: A/Puerto Rico/8/1934 (H1N1) influenza A virus; type: in vivo, BALB/c mice
# [4] = side-by-side comparison, n=6, Table 2.6, read-out: IC50 values for inhibition of U46619-mediated [Ca2+]i, TPβ
# [5] = lung, Day 4, Tamiflu 10 mg/kg, TP20 0.36 mg/kg
# [6] = lung, Day 4, number of animals of 3
compound,measurement,setting,value
"COc1ccc(-c2cccc(Oc3ccc(C#N)cc3S(=O)(=O)NC(=O)NC(C)(C)C)c2)cc1 [NTP4, N-(tert-butylcarbamoyl)-5-cyano-2-((4′-methoxy-[1,1′-biphenyl]-3-yl)oxy)benzenesulfonamide]",activity class in HEK.TPβ cells,"[1]; antagonist 1 μM, 1 μM U46619",ACTIVE
same,remaining activity at 1 µM,"[1]; antagonist 1 μM, 1 μM U46619",22.5 ± 3.7%
same,remaining activity at 10 µM,[1]; 1 μM U46619,10.2 ± 0.95%
same,IC50,[1]; [4],60.4 ± 8 nM
same,inhibition of U46619-mediated responses,"[1]; used at 0.5, HEK.TPβ cells",greater than 50%
"COc1ccc(-c2cccc(Oc3ccc([N+](=O)[O-])cc3S(=O)(=O)NC(=O)NC(C)(C)C)c2)cc1 [TP20, N-(tert-butylcarbamoyl)-2-((4′-methoxy-[1,1′-biphenyl]-3-yl)oxy)-5-nitrobenzene-sulfonamide]",reduction of U46619-mediated calcium mobilization responses,"[1]; 1 & 10 μM, HEK.TPβ cells",approx. 90%
same,IC50,"[1]; HEK.TPβ cells, 1 μM U46619, Table 2, read-out: IC50 data for U46619-mediated [Ca2+]i mobilization, TPβ",7.33 nM
same,remaining activity at 1 µM,"[1]; antagonist 1 μM, 1 μM U46619",12.6 ± 1.46%
same,remaining activity at 10 µM,[1]; 1 μM U46619,9.96 ± 1.7%
same,IC50,[1]; [4],9.61 ± 1.46 nM
same,effect on ADP-induced platelet aggregation,[2],did not affect
same,mean time of death post-viral challenge,[3]; TP20 360 μg/kg oral gavage twice daily,7.2 days
same,loss of body weight post-viral infection,"[3]; Tamiflu 10 mg/kg, TP20 360 μg/kg, oral gavage twice daily",≤ 30%
same,"Alveolar Acute Inflammation, number of animals with the finding","[3]; lung, Day 4, 3 animals",(0)
same,"Bronchiolar Erosion, number of animals with the finding","[3]; lung, Day 4, 3 animals",(3)
same,"Bronchiolar Exudate, number of animals with the finding","[3]; lung, Day 4, 3 animals",(3)
same,"Bronchiolar acute Inflammation, number of animals with the finding","[3]; lung, Day 4, 3 animals",(3)
same,"Vascular Necrosis, number of animals with the finding","[3]; lung, Day 4, 3 animals",(0)
same,"Extent of Perivascular Edema (Mean ± S.E.M.), Per Animal",[3]; [5],16.9 ± 1.09 (70) arbitrary units and 17.4 ± 0.98 (89) arbitrary units and 19.2 ± 1.10 (78) arbitrary units
same,"Extent of Perivascular Edema (Mean ± S.E.M.), Per Treatment Group",[3]; [5],18.0 ± 0.59 arbitrary units
same,reduction in the perivascular edema compared to vehicle,[3]; [5],approx. 20%
same,"Bronchiolar Erosion, Mild",[3]; [6],3
same,"Bronchiolar Erosion, Minimal",[3]; [6],0
same,"Bronchiolar Erosion, Moderate",[3]; [6],0
same,"Bronchiolar Exudate, Mild",[3]; [6],1
same,"Bronchiolar Exudate, Minimal",[3]; [6],2
same,"Bronchiolar Exudate, Moderate",[3]; [6],0
same,"Bronchiolar acute Inflammation, Mild",[3]; [6],0
same,"Bronchiolar acute Inflammation, Minimal",[3]; [6],3
same,"Perivascular Edema, Mild",[3]; [6],0
same,"Perivascular Edema, Minimal",[3]; [6],3
same,"Perivascular Edema, number of animals with the finding","[3]; mouse, in vivo",(3)
